In patent publication US10494338B2, “Prostaglandin derivative” (AGC INC., priority 2016, dated 2019):

What was measured:
[1] = tested on: rat platelet aggregation; assay: Inhibitory action on rat platelet aggregation in vitro (ADP-induced, platelet-rich plasma); format: cell-based; settings: SD rat PRP, ADP 2 μmol/L; relative activity from IC50, activity of IC50 value of PGE1 = 100
Procedure: Experimental Example 2: Evaluation of Inhibitory Action on Rat Platelet Aggregation In Vitro (1) Preparation of Rat Platelet-Rich Plasma In the same manner as in the above-mentioned Experimental Example 1(1), blood samples were collected from the abdominal artery of 8- to 9-week-old male SD rats. PRP was diluted with PPP and the number of platelet was adjusted to 63.2×10^4/μL. (2) Measurement of Platelet Aggregation Ability In the same manner as in the above-mentioned Experimental Example 1(2) except that the final concentration of ADP was 2 μmol/L, the compound of the present invention, prostaglandin E1 (PGE1:positive control substance) or vehicle control was added as a test substance, and the maximum response of aggregation was measured. (3) Evaluation of Platelet Aggregation Inhibitory Action In the same manner as in the above-mentioned Experimental Example 1(3), IC50 values were determined from the aggregation inhibition ratio of the test substance, and the relative activity (%) of each test substance was calculated by defining the activity of IC50 value of PGE1 as 100.

[2] = tested on: guinea pig platelet aggregation; assay: Persistent inhibitory action on guinea pig platelet aggregation ex vivo after single oral dose; format: in vivo; settings: for AUC: 1-inhibition 0 hr / AUC: 6-inhibition 0 hr: AUC of maximum aggregation inhibition ratio (%) vs time (hr), oral IC50 dose; for AUC: 1-inhibition 0 hr: from 1 hr after administration to inhibition 0 hr; for AUC: 6-inhibition 0 hr: from 6 hr after administration to inhibition 0 hr; for Inhibition 0 hr: assumed time at which maximum aggregation inhibition ratio became 0%, single oral dose at IC50 dose; for Inhibition 0 hr / single oral dose showing the IC50 value: guinea pig; for single oral dose showing the IC50 value: blood collected 4 hr later, ADP 0.5 μmol/L; for AUC: 1-inhibition 0 hr (% relative to limaprost) / AUC: 6-inhibition 0 hr (% relative to limaprost): value in brackets, limaprost = 100
Procedure: Experimental Example 3: Evaluation of Persistent Inhibitory Action on Guinea Pig Platelet Aggregation Ex Vivo
(1) Measurement of IC50 Value
As a test substance, a single oral dose of the compound of the present invention (3 doses of 79, 132 and 263 nmol/kg), limaprost (positive control substance: 3 doses of 79, 263 and 789 nmol/kg) or vehicle control (water for injection containing 0.26 vol % DMSO) was administered at 10 mL/kg to 4- to 10-week-old male Hartley guinea pigs. Blood samples were collected from the abdominal artery 4 hr later, platelet aggregation ability was measured, and the IC50 value was calculated from the aggregation inhibitory activity (aggregation was induced by 0.5 μmol/L ADP) in the same manner as in the above-mentioned Experimental Example 1(3).
(2) Administration of Test Substance and Preparation of Platelet-Rich Plasma
Blood samples were collected from the abdominal artery of the guinea pig at 1, 2, 4, 6, 10, 16 and 24 hr later. PRP was diluted with PPP and the number of platelet was adjusted to about 60×10^4/μL in the same manner as in the above-mentioned Experimental Example 1(1) (n=3−4).
(3) Measurement of Platelet Aggregation
In the same manner as in the above-mentioned Experimental Example 1(2), the platelet aggregation ability was measured according to the method of Born. PRP (190 μL) was placed in a glass cuvette, mounted on the platelet aggregometer and incubated at 37° C. for 10 min. ADP (10 μL) as platelet aggregation agent was added at 0.5 μmol/L in a final concentration to cause aggregation, and the maximum reaction of the aggregation was measured.
(4) Evaluation of Persistent Inhibitory Action on Platelet Aggregation
The maximum aggregation inhibition ratio of the test substance based on the maximum aggregation inhibition ratio of the control group as 0% was determined from the maximum coagulation ratio of the control group and the maximum coagulation ratio of the test substance when IC50 values were calculated. […] In addition, the assumed time at which the maximum aggregation inhibition ratio became 0% on the graph was determined as the time at which inhibition of aggregation disappeared (inhibition 0 hr).

[3] = tested on: rat cauda equine blood flow; assay: Increasing effect on rat cauda equine blood flow (intravenous infusion, laser Doppler); format: in vivo; settings: Wistar rat, tail vein infusion 10 min; relative activity from ED20 (dose increasing cauda equine blood flow by 20%), limaprost = 100
Procedure: Experimental Example 4: Evaluation of Increasing Effect on rat Cauda Equine Blood Flow
(1) Administration of Test Substance
The compound of the present invention or limaprost (positive control substance) as a test substance was injected at 0.263, 0.789 and 2.63 nmol/kg in principle to Slc:Wistar male rats (body weight: about 200-250 g) from the tail vein at a flow rate of 0.2 mL/min for 10 min with an infusion pump (model 11, Harvard Apparatus). A vehicle (1 vol % DMSO-physiological saline) was similarly injected to the control group (5-6 […] in each group).
(2) Measurement of Cauda Equine Blood Flow
The rats were fixed in a prone position under halothane anesthesia and kept warm by a heater (Nippon Medical & Chemical Instruments Co., Ltd.). The lower back of the rats was shaved, dissected to expose the spine, the vertebral arch of the fifth lumbar vertebra was excised and cauda equina was exposed. The cauda equine blood flow was measured by a laser Doppler blood flow meter (TBF-LN1, Unique Medical Co., Ltd.) via a non-contact type probe (LP-NC special type, Unique Medical Co., Ltd.) fixed perpendicularly to a position of the exposed cauda equina upper by about 1 mm from before administration of each test substance until 60 min after the administration. The open wound was filled with liquid paraffin to prevent drying of the exposed cauda equina.
The obtained data was taken into a personal computer via PowerLab8/30 (registered trade mark, ML870, ADInstruments) every 1/400 second, and analyzed using LabChart (registered trade mark, ADInstruments). The analysis time points were before administration (administration 0 min), and 3, 5, 8, 10, 13, 15, 18, 20, 30, 40, 50 and 60 min after administration, or before administration (administration 0 min), and 3, 5, 10, 15, 20, 30, 40, 50 and 60 min after administration. The mean value for 10 seconds at each time point was taken as the measurement value, and the change rate (%) relative to the value before administration was obtained by the following equation. The rate of change (%)=(measurement value at each time point after administration−measurement value before administration)/measurement value before administration×100
Furthermore, difference in the rate of change (%) relative to the control group at each time point [Δ change rate (%)] was calculated by the following equation, and the maximum value of the Δ change rate was taken as the maximum change rate. Δchange rate (%)=change rate of each individual at each time point−mean of change rate of control group
From the maximum change rate at each dose of the test substance, the dose at which the cauda equine blood flow increases by 20% (ED20 value) was determined by linear regression equation, and the relative activity (%) of each test substance was calculated based on the activity of ED20 value of limaprost as 100.

[4] = tested on: human platelet aggregation; assay: Human platelet aggregation inhibitory action in vitro (ADP-induced, platelet-rich plasma); format: cell-based; settings: human PRP, ADP 3 μmol/L; relative activity from IC50, activity of IC50 value of limaprost = 100
Procedure: Experimental Example 1: Evaluation of Human Platelet Aggregation Inhibitory Action In Vitro
(1) Preparation of Human Platelet-Rich Plasma
Using 3.8 w/v % sodium citrate as an anticoagulant, blood samples were collected from human brachial vein at a ratio of sodium citrate solution:blood (volume ratio)=1:9, and an upper layer of platelet-rich plasma (PRP) was collected by centrifugation (120×g, 10 min). Platelet poor plasma (PPP) was prepared from PRP-free blood by centrifugation (1700×g, 10 min). The number of platelets in PRP was measured and adjusted to 25×10^4/μL by diluting with PPP.
(2) Measurement of Platelet Aggregation Ability
The platelet aggregation ability was measured by a platelet aggregometer (PRP313 M, IMI Co., Ltd.) according to the method of Born (Nature, 1962, vol. 194, pp. 927-929). PRP (190 μL) was placed in a glass cuvette and mounted on the platelet aggregometer. Then, 5 μL of the compound of the present invention, limaprost (positive control substance) or vehicle control (0.25 vol % dimethyl sulfoxide [DMSO]) was added as a test substance, and the mixture was incubated at 37° C. for 10 min. ADP (LMS Co., Ltd.) (5 μL) as a platelet aggregation agent was added at 3 μmol/L in a final concentration to cause aggregation, and the maximum response of the aggregation was measured.
(3) Evaluation of Inhibitory Action on Platelet Aggregation
The aggregation inhibition ratio of a test substance was determined by defining the maximum aggregation ratio of control as 100%, and IC50 value was determined by using “Dx calculation (linear fitting): non-logit transformation” of SAS System Version 9.1.3 (Stat Preclinica Client Ver. 1.1 SAS Institute Japan, Ltd.). Furthermore, the relative activity (%) of each test substance was calculated by defining the activity of IC50 value of limaprost as 100.

For `CCCCC[C@H](O)/C=C/[C@H]1[C@H](O)CC(=O)[C@@H]1CCCCCCC(=O)O` [PGE1, prostaglandin E1, reference compound], the “Relative activity (%)” value [1] was 100%.
With `CCC#CC[C@H](C)[C@H](O)/C=C/[C@H]1[C@H](O)CC(=O)[C@@H]1CCCC/C=C/C(=O)O` [compound (1)-7, (2E)-7-((1R,2R,3R)-3-hydroxy-2-((1E,3S,4S)-3-hydroxy-4-methylnon-1-en-6-yn-1-yl)-5-oxocyclopentyl)hept-2-enoic acid] the AUC: 1-inhibition 0 hr [2] was 713 %·h, the AUC: 6-inhibition 0 hr [2] was 526 %·h and the “Inhibition 0 hr” value [2] was greater than 24 h. The “single oral dose showing the IC50 value” [2] was 168 nmol/kg, the “AUC: 1-inhibition 0 hr (% relative to limaprost)” value [2] was 202% and the “AUC: 6-inhibition 0 hr (% relative to limaprost)” value [2] was 359%. The “Relative activity (%)” value [3] was 375% and the “Relative activity (%)” value [4] was 1319%.
For `CCC#CC[C@H](C)C(O)/C=C/[C@H]1[C@H](O)CC(=O)[C@@H]1CCCCCCC(=O)OC` (stereo partly drawn) [compound (1)-3, methyl ((1R,2R,3R)-3-hydroxy-2-((1E,3RS,4S)-3-hydroxy-4-methylnon-1-en-6-yn-1-yl)-5-oxocyclopentyl)heptanoate], the “Relative activity (%)” value [1] was 2175%.
With `CCC#CC[C@H](C)[C@H](O)/C=C/[C@H]1[C@H](O)CC(=O)[C@@H]1CCCCCC(F)(F)C(=O)O` [compound (1)-8, 2,2-difluoro-7-((1R,2R,3R)-3-hydroxy-2-((1E,3S,4S)-3-hydroxy-4-methylnon-1-en-6-yn-1-yl)-5-oxocyclopentyl)heptanoic acid] the “Relative activity (%)” value [1] was 817%.
With `CCC#CC[C@H](C)[C@H](O)/C=C/[C@H]1[C@H](O)CC(=O)[C@@H]1CCCCCCC(=O)OCc1oc(=O)oc1C` [compound (1)-4, (5-methyl-2-oxo-1,3-dioxol-4-yl)methyl 7-((1R,2R,3R)-3-hydroxy-2-((1E,3S,4S)-3-hydroxy-4-methylnon-1-en-6-yn-1-yl)-5-oxocyclopentyl)heptanoate] the “Relative activity (%)” value [3] was 147% and the “Relative activity (%)” value [4] was 643%.
For `CCC#CC[C@H](C)[C@H](O)/C=C/[C@H]1[C@H](O)CC(=O)[C@@H]1CCCCCCC(=O)OCC(=O)C(C)(C)C` [compound (1)-5, 3,3-dimethyl-2-oxobutyl 7-((1R,2R,3R)-3-hydroxy-2-((1E,3S,4S)-3-hydroxy-4-methylnon-1-en-6-yn-1-yl)-5-oxocyclopentyl) heptanoate], the “Relative activity (%)” value [4] was 161%.
In the case of `CCC#CC[C@H](C)[C@H](O)/C=C/[C@H]1[C@H](O)CC(=O)[C@@H]1CCCCCCC(=O)O` [compound (1)-6, 7-((1R,2R,3R)-3-hydroxy-2-((1E,3S,4S)-3-hydroxy-4-methylnon-1-en-6-yn-1-yl)-5-oxocyclopentyl)heptanoic acid], the “Relative activity (%)” value [3] is reported as 383% and the “Relative activity (%)” value [4] is reported as 923%.
For `CCCC[C@H](C)C[C@H](O)/C=C/[C@H]1[C@H](O)CC(=O)[C@@H]1CCCC/C=C/C(=O)O` [limaprost, (2E)-7-((1R,2R,3R)-3-hydroxy-2-((1E,3S,5S)-3-hydroxy-5-methylnon-1-en-1-yl)-5-oxocyclopentyl)hept-2-enoic acid, reference compound], the AUC: 1-inhibition 0 hr [2] was 353 %·h, the AUC: 6-inhibition 0 hr [2] was 147 %·h and the “Inhibition 0 hr” value [2] was 12.1 h. The “single oral dose showing the IC50 value” [2] was 266 nmol/kg, the “AUC: 1-inhibition 0 hr (% relative to limaprost)” value [2] was 100% and the “AUC: 6-inhibition 0 hr (% relative to limaprost)” value [2] was 100%. For the same compound, the “Relative activity (%)” value [3] was 100% and the “Relative activity (%)” value [4] was 100%.
`C[C@@H](CC#CC1CC1)[C@H](O)/C=C/[C@H]1[C@H](O)CC(=O)[C@@H]1CCCCCCC(=O)O` [compound (1)-9, 7-((1R,2R,3R)-2-((1E,3S,4S)-7-cyclopropyl-3-hydroxy-4-methylhept-1-en-6-yn-1-yl)-3-hydroxy-5-oxocyclopentyl)heptanoic acid] was tested, and the AUC: 1-inhibition 0 hr [2] was 627 %·h, the AUC: 6-inhibition 0 hr [2] was 401 %·h and the “Inhibition 0 hr” value [2] was 19.7 h. The “single oral dose showing the IC50 value” [2] was 178 nmol/kg, the “AUC: 1-inhibition 0 hr (% relative to limaprost)” value [2] was 178% and the “AUC: 6-inhibition 0 hr (% relative to limaprost)” value [2] was 273%. For the same compound, the “Relative activity (%)” value [3] was 311% and the “Relative activity (%)” value [4] was 1200%.
`C[C@@H](CC#CC1CC1)[C@H](O)/C=C/[C@H]1[C@H](O)CC(=O)[C@@H]1CCCC/C=C/C(=O)O` [compound (1)-10, (2E)-7-((1R,2R,3R)-2-((1E,3S,4S)-7-cyclopropyl-3-hydroxy-4-methylhept-1-en-6-yn-1-yl)-3-hydroxy-5-oxocyclopentyl)hept-2-enoic acid] was tested, and the AUC: 1-inhibition 0 hr [2] was 719 %·h, the AUC: 6-inhibition 0 hr [2] was 508 %·h and the “Inhibition 0 hr” value [2] was greater than 24 h. For the same compound, the “single oral dose showing the IC50 value” [2] was 187 nmol/kg, the “AUC: 1-inhibition 0 hr (% relative to limaprost)” value [2] was 204% and the “AUC: 6-inhibition 0 hr (% relative to limaprost)” value [2] was 346%. For the same compound, the “Relative activity (%)” value [3] was 550% and the “Relative activity (%)” value [4] was 1481%.
